Assay results: US20120128715A1, “METHOD FOR STIMULATING THE IMMUNE RESPONSE OF NEWBORNS” (3M INNOVATIVE PROPERTIES COMPANY, priority 2004, published 2012)
No end group written: not given here. 2,3‑bisacyloxypropyl = 2,3-bisacyloxypropyl group on the Cys sulfur

Columns and labels:
TLR8 and TLR7 [1] = experiment: TLR agonism and TLR8 selectivity (TLR-mediated activity); format: cell-based; conditions: for concentration inducing TLR8 activity as fraction of that necessary to induce TLR7-mediated activity: TLR8 vs TLR7 selectivity; for TLR8 selectivity: named as examples of TLR8-selective compounds
From the text: The TLR agonism for a particular compound may be assessed in any suitable manner.
Conversely, a compound may be identified as not acting as an agonist of a specified TLR if, when used to perform an assay designed to detect biological activity mediated by the specified TLR, the compound fails to elicit a threshold increase in the biological activity. […] An assay may or may not be performed in conjunction with the appropriate control.
A significant degree may be, for example, inducing activity mediated by one TLR (e.g., TLR8) when administered at half the concentration necessary to induce activity through another TLR (e.g., TLR7).
Assays employing HEK293 cells transfected with an expressible TLR structural gene may use a threshold of, for example, at least a three-fold increase in a TLR-mediated biological activity (e.g., NFκB activation) when the compound is provided at a concentration of, for example, from about 1 μM to about 10 μM for identifying a compound as an agonist of the TLR transfected into the cell. However, different thresholds and/or different concentration ranges may be suitable in certain circumstances. Also, different thresholds may be appropriate for different assays.

TLR8 and TLR7 [2] = conditions: cited from earlier work
[3] = tested on: newborn cord blood and adult peripheral blood; experiment: TLR ligand-induced TNF-α release in whole blood ex vivo (ELISA); format: cell-based, human; conditions: for ligand-induced TNF-α release in newborn cord blood compared with adult peripheral blood: 5-hour incubation, FIGS. 1A-1E
Protocol: Peripheral blood was collected from healthy adult volunteers (N=26 individual volunteers; mean age 27 years; 45% male, 55% female) and newborn cord blood (N=63; mean gestational age 39 weeks; 43% male, 57% female) collected immediately after cesarean section delivery (epidural anesthesia) of the placenta or from the umbilical cord immediately after vaginal birth but prior to delivery of the placenta. Births at which antibiotics were administered during labor and/or delivery, and births to HIV-positive mothers were excluded. Human experimentation guidelines of the US Department of Health and Human Services and the Brigham & Women's Hospital were observed, following protocols approved by the local Institutional Review Board. Blood was anticoagulated with 129 mM sodium citrate (Becton Dickinson, Franklin Lakes, N.J.). Hemocytes were collected by centrifugation of blood, followed by washing three times with Hank's Balanced Salt Solution (HBSS) buffer without magnesium or calcium (Gibco BRL, Grand Island, N.Y.) and then resuspension in either autologous or heterologous 100% plasma.
TLR ligands included the synthetic triacylated BLP (tBLP) Pam3-CSSNA (Bachem Bioscience, King of Prussia, Pa.) corresponding to the N-terminus of a BLP from E. coli B/r (Biesert et al. 1987. Eur J Biochem 162:651), the synthetic diacylated BLP macrophage-activating lipopeptide-2 (MALP; S-(2,3-bisAcyloxypropyl)-cysteine-[…] (SEQ ID NO: 5); Alexis Biochemicals, Lausen, Switzerland) from Mycoplasma fermentans (Muhlradt et al. 1997. J Exp Med. 185:1951), ultrapure Re 595 LPS from Salmonella minnesota (List Biologicals, Campbell, Calif.), and the IRM compounds imiquimod (3M Pharmaceuticals, Northridge, Calif.), and resiquimod (InvivoGen, San Diego, Calif.). Specificity of individual TLR ligands for their cognate receptors was confirmed using either NF-kB luciferase reporter and TLR co-transfected Human Embryonic Kidney (HEK) 293 cells or a neutralizing mAb to TLR2 (Levy, O. et al. 2003. Infect Immun 71:6344), as previously described.
After incubation of TLR ligands in blood or monocyte suspensions for 5 hours at 37° C. with end-over-end rotation, samples were diluted with five volumes of ice-cold RPMI medium (Gibco BRL) and centrifuged at 1,000×g at 4° C. for 5 minutes. The supernatant was recovered and stored at −20° C. until assay of TNF-α by ELISA (R&D Systems, Minneapolis, Minn.).
TLR ligand-induced TNF-α release in whole human blood ex vivo as described above in Example 1. The single stranded ribonucleic acid (ssRNA) tested in this example was ssRNA40/LyoVec purchased from InvivoGen (San Diego, Calif.) comprised of single-stranded GU-rich oligonucleotide (5′-GsCsCsCsGsUsCsUsGsUsUsGsUsGsUsGsAsCsUsC-3′ (SEQ ID NO:1); where “s” depicts a phosphothioate linkage complexed with the cationic lipid LyoVec that protects the RNA from degradation and enhance is uptake by immune cells. The guanosine analog loxoribine (TLR7 ligand) was purchased from InvivoGen.

[4] = tested on: neonatal myeloid dendritic cells (mDCs); experiment: CD40 expression on myeloid dendritic cells in whole blood (flow cytometry); format: cell-based, human; conditions: imiquimod 250 μM, resiquimod 50 μM, 19 hours; FIGS. 15A-15D
Protocol: After lysis of red blood cells and fixation, mDCs were identified as lint-/HLA-DR+/CD11c+ cells using four color flow cytometry (BD BioSciences) and CD40 was measured using a PE-conjugated mAb.
Newborn cord or adult peripheral blood was incubated with TLR agonists at 37° C. for 19 hours. mDCs were identified by flow cytometry and the level of expression of CD40 was measured using a PE-conjugated mAb.
CD40 expression on mDCs was studied in whole newborn cord blood, in comparison to those of adult peripheral blood, using four-color flow cytometry (BD Biosciences). mDCs were identified as lineage 1-/HLA-DR+/CD11c+ cells. Upregulation of surface CD40 expression was measured using a phycoerythrin-conjugated anti-CD40 mAb.

Molecule	concentration inducing TLR8 activity as fraction of that necessary to induce TLR7-mediated activity (TLR8 and TLR7 [1])	other results
CCCc1nc2c(N)nc3cc(OCCCNS(=O)(=O)c4cccc5c(N(C)C)cccc45)ccc3c2s1 [N-{3-[(4-amino-2-propyl[1,3]thiazolo[4,5-c]quinolin-7-yl)oxy]propyl}-5-(dimethylamino)naphthalene-1-sulfonamide]	one half to about one-fifth	
CCCc1nc2c(N)nc3cc(OCCCCCCNS(C)(=O)=O)ccc3c2s1 [N-{6-[(4-amino-2-propyl[1,3]thiazolo[4,5-c]quinolin-7-yl)oxy]hexyl}methanesulfonamide]	less than one-fifth	
CC(C)Cc1nc2c(N)nc3ccccc3c2s1 [2-(2-methylpropyl)thiazolo[4,5-c]quinolin-4-amine]	less than one-fifth	
CCCc1nc2c(N)nc3cc(F)ccc3c2s1 [7-fluoro-2-propylthiazolo[4,5-c]quinolin-4-amine]	less than one-fifth	
CC(C)Cn1cnc2c(N)nc3ccccc3c21 [imiquimod]		TLR agonism (which TLR) (TLR8 and TLR7 [2]): agonist at TLR7 receptors; ligand-induced TNF-α release in newborn cord blood compared with adult peripheral blood [3]: impaired; upregulation of CD40 expression in neonatal mDCs [4]: does not
CCOCc1nc2c(N)nc3c(c2n1CC(C)(C)O)CCCC3 [IRM3, 4-amino-2-(ethoxymethyl)-α,α-dimethyl-6,7,8,9-tetrahydro-1H-imidazo[4,5-c]quinoline-1-ethanol]		TLR agonism (which TLR) (TLR8 and TLR7 [2]): agonist of both TLR7 and TLR8
CCCc1nc2c(N)nc3ccc(N)cc3c2s1 [2-propylthiazolo[4,5-c]quinoline-4,8-diamine]		TLR8 selectivity (TLR8 and TLR7 [1]): TLR8-selective
CCCc1nc2c(N)nc3cc(OCCCNC(=O)OC(C)(C)C)ccc3c2s1 [tert-butyl 3-[(4-amino-2-propyl[1,3]thiazolo[4,5-c]quinolin-7-yl)oxy]propylcarbamate]	less than one-fifth	
CCOCc1nc2c(N)nc3ccccc3c2n1CC(C)(C)O [resiquimod]		potency relative to imiquimod (TLR8 and TLR7 [1]; FIG. 11): ~100 fold
CCCCc1nc2c(N)nc3cccnc3c2s1 [2-butylthiazolo[4,5-c][1,5]naphthyridin-4-amine]		TLR8 selectivity (TLR8 and TLR7 [1]): TLR8-selective
CCCc1nc2c(N)nc3cc(-c4cccc(NS(C)(=O)=O)c4)ccc3c2s1 [N-[3-(4-amino-2-propylthiazolo[4,5-c]quinolin-7-yl)phenyl]methanesulfonamide]	less than one-fifth	
CCCc1nc2c(N)nc3cc(OCCOCCCl)ccc3c2s1 [7-[2-(2-chloroethoxy)ethoxy]-2-propyl[1,3]thiazolo[4,5-c]quinolin-4-amine]	less than one-fifth	
CCCc1nc2c(N)nc3ccc(C)cc3c2s1 [8-methyl-2-propylthiazolo[4,5-c]quinolin-4-amine]	less than one-fifth	
CC(C)c1nc2c(N)nc3ccccc3c2s1 [2-(1-methylethyl)thiazolo[4,5-c]quinolin-4-amine]	less than one-fifth	
Pam3-CSSNA [tBLP]		ligand-induced TNF-α release in newborn cord blood compared with adult peripheral blood [3]: impaired; ligand-induced TNF-α release in cord blood compared with adult controls ([3]; cord blood from both Caesarian-section and vaginal deliveries, 5 hours, FIGS. 2A-2C): impaired; magnitude and kinetics of ligand-induced TNF-α release in newborn cord vs. adult peripheral blood ([3]; time course, FIGS. 3A-3C): lower magnitude, but similar kinetics
CCCc1nc2c(N)nc3cc(OCCOCCNC(=O)OC(C)(C)C)ccc3c2s1 [tert-butyl 2{-2-[(4-amino-2-propyl[1,3]thiazolo[4,5-c]quinolin-7-yl)oxy]ethoxy}ethylcarbamate]	less than one-fifth	
S-(2,3-bisAcyloxypropyl)-cysteine-GNNDESNISFKEK (C(2,3‑bisacyloxypropyl)GNNDESNISFKEK; also: acyl groups not given here) [MALP, synthetic diacylated BLP from Mycoplasma fermentans (TLR2/6)]		ligand-induced TNF-α release in newborn cord blood compared with adult peripheral blood [3]: impaired
CCCc1nc2c(N)nc3cc(OCCNC(=O)OC(C)(C)C)ccc3c2s1 [tert-butyl 2-[(4-amino-2-propyl[1,3]thiazolo[4,5-c]quinolin-7-yl)oxy]ethylcarbamate]	one half to about one-fifth	
CCCc1nc2c(N)nc3cccnc3c2s1 [2-propylthiazolo[4,5-c][1,5]naphthyridin-4-amine]	less than one-fifth	
